The OligoGym collection
HELM strings list units from the 5' end as sugar, base in round brackets, then linkage (d deoxyribose, r ribose, m 2'-O-methyl, p phosphodiester). Strings are as the collection lists them; they lack the last nucleoside at the 3' end of the tested compound. [moe] = 2'-O-(2-methoxyethyl) (MOE); [sp] = phosphorothioate linkage; [m5C] = 5-methylcytosine

target: UBE3A-ATS; assay: mouse, dose not given; conditions: ASO

Substance | 3 h FOB score [score 0-7]
RNA1{[moe](G)[sp].[moe]([m5C])p.[moe](T)p.[moe](G)[sp].d(A)[sp].d(T)[sp].d([m5C])[sp].d(A)[sp].d([m5C])[sp].d(A)[sp].d(T)[sp].d(T)[sp].[moe](A)p.[moe]([m5C])p.[moe]([m5C])p.[moe]([m5C])[sp].[moe](A)}$$$$ (last 3' nucleoside missing) | 0
RNA1{[moe](G)[sp].[moe]([m5C])p.[moe](T)p.[moe](G)p.[moe](A)[sp].d(T)[sp].d([m5C])[sp].d(A)[sp].d([m5C])[sp].d(A)[sp].d(T)[sp].d(T)[sp].d(A)[sp].[moe]([m5C])p.[moe]([m5C])p.[moe]([m5C])[sp].[moe](A)}$$$$ (last 3' nucleoside missing) | 1
RNA1{[moe](G)[sp].[moe]([m5C])p.[moe](T)p.[moe](G)p.[moe](A)p.[moe](T)[sp].d([m5C])[sp].d(A)[sp].d([m5C])[sp].d(A)[sp].d(T)[sp].d(T)[sp].d(A)[sp].d([m5C])[sp].[moe]([m5C])p.[moe]([m5C])[sp].[moe](A)}$$$$ (last 3' nucleoside missing) | 0
RNA1{[moe](G)[sp].[moe]([m5C])p.[moe](T)p.[moe](G)p.[moe](A)p.[moe](T)p.d([m5C])[sp].d(A)[sp].d([m5C])[sp].d(A)[sp].d(T)[sp].d(T)[sp].d(A)[sp].d([m5C])[sp].d([m5C])[sp].d([m5C])[sp].[moe](A)p.[moe](T)[sp].[moe]([m5C])}$$$$ (last 3' nucleoside missing) | 0
RNA1{[moe](G)[sp].[moe]([m5C])p.[moe](T)p.[moe](G)p.[moe](A)p.d(T)[sp].d([m5C])[sp].d(A)[sp].d([m5C])[sp].d(A)[sp].d(T)[sp].d(T)[sp].d(A)[sp].d([m5C])[sp].d([m5C])[sp].[moe]([m5C])p.[moe](A)p.[moe](T)[sp].[moe]([m5C])}$$$$ (last 3' nucleoside missing) | 0
RNA1{[moe](G)[sp].[moe]([m5C])p.[moe](T)p.[moe](G)p.[moe](T)p.d(A)[sp].d(A)[sp].d(G)[sp].d(T)[sp].d(A)[sp].d(T)[sp].d(A)[sp].d(G)[sp].d(A)[sp].d(T)[sp].[moe](G)p.[moe]([m5C])p.[moe]([m5C])[sp].[moe](T)}$$$$ (last 3' nucleoside missing) | 2
RNA1{[moe](G)[sp].[moe]([m5C])p.[moe](T)p.[moe](G)p.d(A)[sp].d(T)[sp].d([m5C])[sp].d(A)[sp].d([m5C])[sp].d(A)[sp].d(T)[sp].d(T)[sp].d(A)[sp].d([m5C])[sp].[moe]([m5C])p.[moe]([m5C])p.[moe](A)p.[moe](T)[sp].[moe]([m5C])}$$$$ (last 3' nucleoside missing) | 0
RNA1{[moe](G)[sp].[moe]([m5C])p.[moe](T)p.[moe](T)p.[moe](A)p.d(G)[sp].d(G)[sp].d([m5C])[sp].d(A)[sp].d(A)[sp].d(T)[sp].d(G)[sp].d(G)[sp].d(A)[sp].d([m5C])[sp].[moe](T)p.[moe](T)p.[moe](A)[sp].[moe](G)}$$$$ (last 3' nucleoside missing) | 5.5
RNA1{[moe](G)[sp].[moe]([m5C])p.[moe](T)p.[moe](T)p.[moe](A)p.d(T)[sp].d(G)[sp].d(T)[sp].d(A)[sp].d(G)[sp].d([m5C])[sp].d(T)[sp].d([m5C])[sp].d(A)[sp].d(G)[sp].[moe]([m5C])p.[moe](T)p.[moe]([m5C])[sp].[moe](A)}$$$$ (last 3' nucleoside missing) | 1
RNA1{[moe](G)[sp].[moe]([m5C])p.[moe](T)p.[moe](T)p.[moe](T)p.d(A)[sp].d(G)[sp].d(T)[sp].d(A)[sp].d(T)[sp].d(G)[sp].d(T)[sp].d([m5C])[sp].d(G)[sp].d(A)[sp].[moe](G)p.[moe](A)p.[moe](A)[sp].[moe]([m5C])}$$$$ (last 3' nucleoside missing) | 6
RNA1{[moe](G)[sp].[moe]([m5C])p.[moe](T)p.[moe](T)p.[moe](T)p.d(A)[sp].d(T)[sp].d(A)[sp].d([m5C])[sp].d(T)[sp].d(T)[sp].d(T)[sp].d(A)[sp].d([m5C])[sp].d([m5C])[sp].[moe]([m5C])p.[moe](A)p.[moe](A)[sp].[moe]([m5C])}$$$$ (last 3' nucleoside missing) | 1
RNA1{[moe](G)[sp].[moe]([m5C])p.[moe](T)p.[moe](T)p.[moe](T)p.d(T)[sp].d([m5C])[sp].d(A)[sp].d(G)[sp].d(T)[sp].d([m5C])[sp].d(A)[sp].d(G)[sp].d(G)[sp].d(T)[sp].[moe](A)p.[moe]([m5C])p.[moe](A)[sp].[moe](G)}$$$$ (last 3' nucleoside missing) | 6
RNA1{[moe](G)[sp].[moe]([m5C])p.[moe](T)p.[moe](T)p.[moe]([m5C])p.[moe](A)p.d([m5C])[sp].d([m5C])[sp].d(A)[sp].d(T)[sp].d(T)[sp].d(T)[sp].d(T)[sp].d(G)[sp].d(A)[sp].d([m5C])[sp].[moe]([m5C])p.[moe](T)[sp].[moe](T)}$$$$ (last 3' nucleoside missing) | 1
RNA1{[moe](G)[sp].[moe]([m5C])p.[moe](T)p.[moe](T)p.[moe]([m5C])p.d(A)[sp].d([m5C])[sp].d([m5C])[sp].d(A)[sp].d(T)[sp].d(T)[sp].d(T)[sp].d(T)[sp].d(G)[sp].d(A)[sp].[moe]([m5C])p.[moe]([m5C])p.[moe](T)[sp].[moe](T)}$$$$ (last 3' nucleoside missing) | 2.2
RNA1{[moe](G)[sp].[moe]([m5C])p.[moe](T)p.[moe](T)p.d([m5C])[sp].d(A)[sp].d([m5C])[sp].d([m5C])[sp].d(A)[sp].d(T)[sp].d(T)[sp].d(T)[sp].d(T)[sp].d(G)[sp].[moe](A)p.[moe]([m5C])p.[moe]([m5C])p.[moe](T)[sp].[moe](T)}$$$$ (last 3' nucleoside missing) | 0
RNA1{[moe](G)[sp].[moe]([m5C])p.[moe](T)p.[moe]([m5C])[sp].d(A)[sp].d(G)[sp].d(T)[sp].d(T)[sp].d(A)[sp].d(G)[sp].d(G)[sp].d(T)[sp].[moe](T)p.[moe](A)p.[moe](G)p.[moe](T)[sp].[moe](G)}$$$$ (last 3' nucleoside missing) | 4
RNA1{[moe](G)[sp].[moe]([m5C])p.[moe](T)p.[moe]([m5C])p.[moe](A)[sp].d(G)[sp].d(T)[sp].d(T)[sp].d(A)[sp].d(G)[sp].d(G)[sp].d(T)[sp].d(T)[sp].[moe](A)p.[moe](G)p.[moe](T)[sp].[moe](G)}$$$$ (last 3' nucleoside missing) | 2.3
RNA1{[moe](G)[sp].[moe]([m5C])p.[moe](T)p.[moe]([m5C])p.[moe](A)p.[moe](G)[sp].d(T)[sp].d(T)[sp].d(A)[sp].d(G)[sp].d(G)[sp].d(T)[sp].d(T)[sp].d(A)[sp].[moe](G)p.[moe](T)[sp].[moe](G)}$$$$ (last 3' nucleoside missing) | 5
RNA1{[moe](G)[sp].[moe]([m5C])p.[moe](T)p.[moe]([m5C])p.[moe](A)p.[moe](G)p.d(T)[sp].d(T)[sp].d(A)[sp].d(G)[sp].d(G)[sp].d(T)[sp].d(T)[sp].d(A)[sp].d(G)[sp].d(T)[sp].[moe](G)p.[moe]([m5C])[sp].[moe](A)}$$$$ (last 3' nucleoside missing) | 4
RNA1{[moe](G)[sp].[moe]([m5C])p.[moe](T)p.[moe]([m5C])p.[moe](A)p.d(G)[sp].d(T)[sp].d(T)[sp].d(A)[sp].d(G)[sp].d(G)[sp].d(T)[sp].d(T)[sp].d(A)[sp].d(G)[sp].[moe](T)p.[moe](G)p.[moe]([m5C])[sp].[moe](A)}$$$$ (last 3' nucleoside missing) | 3.8
RNA1{[moe](G)[sp].[moe]([m5C])p.[moe](T)p.[moe]([m5C])p.[moe](A)p.d(T)[sp].d([m5C])[sp].d(A)[sp].d([m5C])[sp].d(A)[sp].d(A)[sp].d([m5C])[sp].d(T)[sp].d(G)[sp].d(G)[sp].[moe](G)p.[moe](T)p.[moe](G)[sp].[moe](G)}$$$$ (last 3' nucleoside missing) | 1
RNA1{[moe](G)[sp].[moe]([m5C])p.[moe](T)p.[moe]([m5C])p.d(A)[sp].d(G)[sp].d(T)[sp].d(T)[sp].d(A)[sp].d(G)[sp].d(G)[sp].d(T)[sp].d(T)[sp].d(A)[sp].[moe](G)p.[moe](T)p.[moe](G)p.[moe]([m5C])[sp].[moe](A)}$$$$ (last 3' nucleoside missing) | 4
RNA1{[moe](G)[sp].[moe]([m5C])p.[moe]([m5C])p.[moe](A)[sp].d(G)[sp].d(G)[sp].d(T)[sp].d(G)[sp].d(T)[sp].d([m5C])[sp].d(T)[sp].d(T)[sp].[moe](A)p.[moe](T)p.[moe](A)p.[moe](T)[sp].[moe]([m5C])}$$$$ (last 3' nucleoside missing) | 1
RNA1{[moe](G)[sp].[moe]([m5C])p.[moe]([m5C])p.[moe](A)p.[moe](G)[sp].d(G)[sp].d(T)[sp].d(G)[sp].d(T)[sp].d([m5C])[sp].d(T)[sp].d(T)[sp].d(A)[sp].[moe](T)p.[moe](A)p.[moe](T)[sp].[moe]([m5C])}$$$$ (last 3' nucleoside missing) | 0
RNA1{[moe](G)[sp].[moe]([m5C])p.[moe]([m5C])p.[moe](A)p.[moe](G)p.[moe](G)[sp].d(T)[sp].d(G)[sp].d(T)[sp].d([m5C])[sp].d(T)[sp].d(T)[sp].d(A)[sp].d(T)[sp].[moe](A)p.[moe](T)[sp].[moe]([m5C])}$$$$ (last 3' nucleoside missing) | 0
RNA1{[moe](G)[sp].[moe]([m5C])p.[moe]([m5C])p.[moe](A)p.[moe](G)p.[moe](G)p.d(T)[sp].d(G)[sp].d(T)[sp].d([m5C])[sp].d(T)[sp].d(T)[sp].d(A)[sp].d(T)[sp].d(A)[sp].d(T)[sp].[moe]([m5C])p.[moe](T)[sp].[moe](A)}$$$$ (last 3' nucleoside missing) | 0
RNA1{[moe](G)[sp].[moe]([m5C])p.[moe]([m5C])p.[moe](A)p.[moe](G)p.d(G)[sp].d(T)[sp].d(G)[sp].d(T)[sp].d([m5C])[sp].d(T)[sp].d(T)[sp].d(A)[sp].d(T)[sp].d(A)[sp].[moe](T)p.[moe]([m5C])p.[moe](T)[sp].[moe](A)}$$$$ (last 3' nucleoside missing) | 0
